Test results as given in the supplement of paper PMC10307832.

Key:
Test in all cases: relative viability (nuclei count vs DMSO), 5 days (fraction); higher = more cells survive
AT9283 + Bortezomib = compound: O=C(Nc1c[nH]nc1-c1nc2ccc(CN3CCOCC3)cc2[nH]1)NC1CC1 [AT9283] + CC(C)C[C@H](NC(=O)[C@H](Cc1ccccc1)NC(=O)c1cnccn1)B(O)O [Bortezomib] (partner 0.002 µM)
Outline: (§1)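 Values are medians from duplicate plates. Each reflects relative viability, defined as the nuclei count of treated wells over that of vehicle wells. Lung cancer cell lines in 1536-well plates were pin-tool dosed one day after seeding with one drug alone or with a fixed anchor-drug dose plus five library-drug doses (not always all listed) in √10 steps, then fixed, stained and imaged at 4× after 5 days.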

AT9283 + Crizotinib = compound: O=C(Nc1c[nH]nc1-c1nc2ccc(CN3CCOCC3)cc2[nH]1)NC1CC1 [AT9283] + C[C@@H](Oc1cc(-c2cnn(C3CCNCC3)c2)cnc1N)c1c(Cl)ccc(F)c1Cl [Crizotinib] (partner 1 µM)
Outline: as §1

AT9283 + Foretinib = compound: O=C(Nc1c[nH]nc1-c1nc2ccc(CN3CCOCC3)cc2[nH]1)NC1CC1 [AT9283] + COc1cc2c(Oc3ccc(NC(=O)C4(C(=O)Nc5ccc(F)cc5)CC4)cc3F)ccnc2cc1OCCCN1CCOCC1 [Foretinib] (partner 0.25 µM)
Outline: as §1

AT9283 + Olaparib = compound: O=C(Nc1c[nH]nc1-c1nc2ccc(CN3CCOCC3)cc2[nH]1)NC1CC1 [AT9283] + O=C(c1cc(Cc2n[nH]c(=O)c3ccccc23)ccc1F)N1CCN(C(=O)C2CC2)CC1 [Olaparib] (partner 8 µM)
Outline: as §1

AT9283 + Palbociclib = compound: O=C(Nc1c[nH]nc1-c1nc2ccc(CN3CCOCC3)cc2[nH]1)NC1CC1 [AT9283] + CC(=O)c1c(C)c2cnc(Nc3ccc(N4CCNCC4)cn3)nc2n(C2CCCC2)c1=O [Palbociclib] (partner 0.5 µM)
Outline: as §1

## NCI-H441
AT9283 + Bortezomib; first compound 0.003 µM
  relative viability: 0.406
AT9283 + Bortezomib; first compound 0.03 µM
  relative viability: 0.442
AT9283 + Bortezomib; first compound 0.09487 µM
  relative viability: 0.536
AT9283 + Bortezomib; first compound 0.3 µM
  relative viability: 0.381
AT9283 + Crizotinib; first compound 0.003 µM
  relative viability: 0.614
AT9283 + Crizotinib; first compound 0.03 µM
  relative viability: 0.635
AT9283 + Crizotinib; first compound 0.09487 µM
  relative viability: 0.35
AT9283 + Crizotinib; first compound 0.3 µM
  relative viability: 0.234
AT9283 + Foretinib; first compound 0.003 µM
  relative viability: 1.02
AT9283 + Foretinib; first compound 0.03 µM
  relative viability: 0.847
AT9283 + Foretinib; first compound 0.09487 µM
  relative viability: 0.396
AT9283 + Foretinib; first compound 0.3 µM
  relative viability: 0.301
AT9283 + Olaparib; first compound 0.003 µM
  relative viability: 0.557
AT9283 + Olaparib; first compound 0.03 µM
  relative viability: 0.504
AT9283 + Olaparib; first compound 0.09487 µM
  relative viability: 0.417
AT9283 + Olaparib; first compound 0.3 µM
  relative viability: 0.319
AT9283 + Palbociclib; first compound 0.003 µM
  relative viability: 0.247
AT9283 + Palbociclib; first compound 0.03 µM
  relative viability: 0.236
AT9283 + Palbociclib; first compound 0.09487 µM
  relative viability: 0.205
AT9283 + Palbociclib; first compound 0.3 µM
  relative viability: 0.175
